Drawing on ChEMBL document CHEMBL5729404, “Heterocyclic RIP1 kinase inhibitors” (2022), this text covers IC50 for eight compounds.

The target of the assay is T1, Receptor-interacting serine/threonine-protein kinase 1 (Homo sapiens, UniProt Q13546).
T1 sequence (Q13546 whole entry): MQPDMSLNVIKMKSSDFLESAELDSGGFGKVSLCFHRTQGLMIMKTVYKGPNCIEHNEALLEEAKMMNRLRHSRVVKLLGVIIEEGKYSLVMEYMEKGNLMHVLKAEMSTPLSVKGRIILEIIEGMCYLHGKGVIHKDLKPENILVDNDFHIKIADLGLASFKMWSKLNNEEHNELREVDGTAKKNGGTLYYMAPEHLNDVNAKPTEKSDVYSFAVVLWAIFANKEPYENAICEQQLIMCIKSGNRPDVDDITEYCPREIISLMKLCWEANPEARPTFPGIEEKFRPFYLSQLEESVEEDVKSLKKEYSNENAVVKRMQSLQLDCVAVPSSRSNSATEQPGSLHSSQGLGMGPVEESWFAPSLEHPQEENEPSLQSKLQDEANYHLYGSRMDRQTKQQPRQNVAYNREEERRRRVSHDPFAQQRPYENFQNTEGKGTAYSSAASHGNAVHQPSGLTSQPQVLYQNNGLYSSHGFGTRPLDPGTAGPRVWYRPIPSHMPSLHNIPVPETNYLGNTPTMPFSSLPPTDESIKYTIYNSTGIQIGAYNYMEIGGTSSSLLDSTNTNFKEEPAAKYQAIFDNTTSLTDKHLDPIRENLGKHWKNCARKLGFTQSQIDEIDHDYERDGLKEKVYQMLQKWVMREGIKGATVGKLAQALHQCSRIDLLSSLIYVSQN
The assay can be described thus: Adding 5 μl of ADP-Glo™ terminated the reaction. A general note: ADP-Glo turns the ADP formed in a reaction into a luminescent signal.
`CN1C(=O)[C@@H](NC(=O)n2cc(Cc3ccccn3)cn2)COc2ccc(Br)cc21` showed an IC50 of 65.2 nM.

`CN1C(=O)[C@@H](NC(=O)n2cc(Cc3cccc(F)n3)cn2)COc2ccc(Br)cc21` registered an IC50 of 21.7 nM. On to `CN1C(=O)[C@@H](NC(=O)n2cc(Cc3cccnn3)cn2)COc2ccc(Br)cc21`, for which the IC50 was determined as 830 nM.

`CN1C(=O)[C@@H](NC(=O)n2cc(Cc3ccncc3)cn2)COc2ccc(Br)cc21` returned an IC50 of 102 nM. For the compound `CN1C(=O)[C@@H](NC(=O)n2cc(Cc3cccnc3)cn2)COc2ccc(Br)cc21`, the IC50 was 8.3 nM. The figure for `CN1C(=O)[C@@H](NC(=O)n2cc(Cc3ccc(F)nc3)cn2)COc2ccc(Br)cc21` is 40.3 nM. Turning to `CN1C(=O)[C@@H](NC(=O)n2cc(Cc3cccc(C(F)(F)F)n3)cn2)COc2ccc(Br)cc21`, inhibition was half-maximal at 168 nM (IC50).

Consider `Cc1cccc(Cc2cnn(C(=O)N[C@H]3COc4ccc(Br)cc4N(C)C3=O)c2)n1`, for which the IC50 is 104 nM. Compared with the last compound, the IC50 is about 1.6-fold lower.

A word on the IC50: it is the point on the concentration scale where inhibition reaches its midpoint. A lower IC50 goes with greater potency.
